Source: ChEMBL document CHEMBL1240530, “Inhalation by design: novel ultra-long-acting β(2)-adrenoreceptor agonists for inhaled once-daily treatment of asthma and chronic obstructive pulmonary disease that utilize a sulfonamide agonist headgroup” (J Med Chem, 2010)
Blank lines part the entries; values can stand above or below the molecule they belong to.

Assays:
[1] = Bronchodilatory activity in Dunkin-Hartley guinea pig trachea assessed as time taken for electrical filed stimulation-induced constrictive response to recover by 50%; type: functional, Cavia porcellus
[2] = target: Beta-2 adrenergic receptor (Homo sapiens, UniProt P07550); assay: Agonist activity at human recombinant beta2 adrenergic receptor expressed in CHO cells assessed as elevation in cAMP level after 1 hr by flashplate method; type: functional, cell-based
Chain of Beta-2 adrenergic receptor (P07550 whole entry): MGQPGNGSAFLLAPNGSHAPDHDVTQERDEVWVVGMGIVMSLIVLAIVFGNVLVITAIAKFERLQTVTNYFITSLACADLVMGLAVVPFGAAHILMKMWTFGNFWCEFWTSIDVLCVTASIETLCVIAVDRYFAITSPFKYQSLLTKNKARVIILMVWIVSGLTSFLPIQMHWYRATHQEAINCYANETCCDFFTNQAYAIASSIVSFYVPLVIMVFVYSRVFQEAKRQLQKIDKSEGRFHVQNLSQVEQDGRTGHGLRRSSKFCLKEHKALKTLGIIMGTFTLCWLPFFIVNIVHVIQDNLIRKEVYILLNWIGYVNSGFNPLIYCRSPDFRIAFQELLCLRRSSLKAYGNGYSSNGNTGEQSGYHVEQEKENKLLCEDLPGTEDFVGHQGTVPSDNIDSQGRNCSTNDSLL

[3] = organism: Homo sapiens; assay: Selectivity ratio of EC50 for human recombinant beta-1 adrenergic receptor to EC50 for human recombinant beta2 adrenergic receptor
[4] = Distribution coefficient, log D of the compound; type: physicochemical; conditions: octanol/water
[5] = Dissociation constant, pKa of the compound; type: physicochemical
[6] = tested on: Canis familiaris; assay: Bronchodilatory activity in itr dosed Beagle dog assessed as duration of blockade of acetylcholine-induced bronchoconstriction at ED50 administered as single dose prior to acetylcholine challenge
[7] = tested on: Canis familiaris; assay: Bronchodilatory activity in itr dosed Beagle dog assessed as duration of blockade of acetylcholine-induced bronchoconstriction at 10 times ED50 administered as single dose prior to acetylcholine challenge
[8] = tested on: Canis familiaris; assay: Cardiotoxicity in itr dosed Beagle dog assessed as increase in heart rate after 7.5 hrs; type: toxicity, organism-based, Canis lupus familiaris; conditions: in vivo, inhaled_or_intranasal
[9] = organism: Canis familiaris
Description: Bronchodilatory activity in itr dosed Beagle dog assessed as inhibition of acetylcholine-induced bronchoconstriction administered 5 doses of compound at cumulative 1 hr intervals

[10] = tested on: Liver microsomes; assay: Intrinsic clearance in human liver microsome; type: ADME
[11] = Apparent permeability from apical to basolateral side of human Caco-2 cells; type: ADME, cell-based
[12] = Apparent permeability from basolateral to apical side of human Caco-2 cells; type: ADME, cell-based
[13] = Volume of distribution in iv dosed rat; type: ADME, organism-based; conditions: in vivo
[14] = Total clearance in iv dosed rat; type: ADME, organism-based; conditions: in vivo
[15] = Half life in iv dosed rat; type: ADME, organism-based; conditions: in vivo
[16] = Plasma protein binding in iv dosed rat; type: ADME, organism-based; conditions: read-out: PPB (converted)
[17] = Oral bioavailability in rat; type: ADME, organism-based; conditions: in vivo
[18] = Metabolic stability in rat bile assessed as compound remaining; type: ADME, tissue-based
[19] = tested on: Liver; assay: Intrinsic clearance in rat liver; type: ADME, Microsome; conditions: microsomes
[20] = tested on: Liver; assay: Unbound intrinsic clearance in rat liver; type: ADME, Microsome; conditions: microsomes
[21] = tested on: Liver microsomes; assay: Metabolic stability in human liver microsome; type: ADME
[22] = Tmax in rat at 100 ug, it; type: ADME, organism-based; conditions: in vivo, inhaled or intranasal
[23] = Cmax in rat at 100 ug, it; type: ADME, organism-based; set-up: dose 100 ug; conditions: in vivo, inhaled or intranasal
[24] = target: Voltage-gated inwardly rectifying potassium channel KCNH2 (Homo sapiens, UniProt Q12809); assay: Inhibition of human ERG by patch clamp technique
Chain of Voltage-gated inwardly rectifying potassium channel KCNH2 (Q12809 whole entry): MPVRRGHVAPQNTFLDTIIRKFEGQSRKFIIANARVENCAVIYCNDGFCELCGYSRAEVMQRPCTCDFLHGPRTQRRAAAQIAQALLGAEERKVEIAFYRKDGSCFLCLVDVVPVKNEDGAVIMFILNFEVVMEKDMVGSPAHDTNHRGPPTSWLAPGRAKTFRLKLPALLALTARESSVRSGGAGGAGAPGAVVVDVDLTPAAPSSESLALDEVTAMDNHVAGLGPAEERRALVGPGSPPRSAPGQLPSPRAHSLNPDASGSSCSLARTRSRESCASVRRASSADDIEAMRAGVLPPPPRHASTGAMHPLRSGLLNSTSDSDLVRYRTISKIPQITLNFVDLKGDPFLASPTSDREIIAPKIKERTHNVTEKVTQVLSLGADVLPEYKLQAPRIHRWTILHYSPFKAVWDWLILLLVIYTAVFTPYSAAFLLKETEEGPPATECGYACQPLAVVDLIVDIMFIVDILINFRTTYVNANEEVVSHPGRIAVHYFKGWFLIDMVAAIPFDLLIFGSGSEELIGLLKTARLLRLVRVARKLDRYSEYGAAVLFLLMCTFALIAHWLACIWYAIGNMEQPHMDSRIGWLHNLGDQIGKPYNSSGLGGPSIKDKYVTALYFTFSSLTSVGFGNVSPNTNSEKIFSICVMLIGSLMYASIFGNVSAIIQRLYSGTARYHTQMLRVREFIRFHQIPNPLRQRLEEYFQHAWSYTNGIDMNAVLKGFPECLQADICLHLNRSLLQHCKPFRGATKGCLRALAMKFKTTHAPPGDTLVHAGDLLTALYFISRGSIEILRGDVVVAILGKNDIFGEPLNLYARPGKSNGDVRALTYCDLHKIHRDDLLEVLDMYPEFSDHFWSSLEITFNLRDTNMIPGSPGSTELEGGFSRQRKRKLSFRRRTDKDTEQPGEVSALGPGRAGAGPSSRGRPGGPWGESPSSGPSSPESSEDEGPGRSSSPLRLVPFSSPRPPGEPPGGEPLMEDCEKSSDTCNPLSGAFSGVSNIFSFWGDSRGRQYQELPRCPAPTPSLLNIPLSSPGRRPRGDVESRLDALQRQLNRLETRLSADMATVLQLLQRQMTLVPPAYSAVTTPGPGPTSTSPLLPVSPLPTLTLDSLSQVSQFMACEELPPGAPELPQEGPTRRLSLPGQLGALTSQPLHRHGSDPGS

[25] = tested on: Liver microsomes; assay: Intrinsic clearance in human liver microsome in presence of CYP3A4 inhibitor ketoconazole; type: ADME
[26] = tested on: Canis familiaris; assay: Cardiotoxicity in itr dosed Beagle dog assessed as induction of trachycardia after 7.5 hrs; type: toxicity, organism-based, Canis lupus familiaris; conditions: in vivo, inhaled_or_intranasal
[27] = organism: Oryctolagus cuniculus; assay: Toxicity in rabbit Adelta-fibre firing model assessed as induction of postinhalation cough at 50 to 1000 ug, it; type: organism-based; conditions: in vivo, inhaled_or_intranasal
[28] = in vivo; conditions: beagle, dog, inhaled or intranasal
Description: Therapeutic index, ratio of dose inducing cardiovascular side effects to ED50 for inhibition of acetylcholine-induced bronchoconstriction in itr dosed Beagle dog

Ratio EC50 [3]: 1300
Structure (SMILES): CC(C)(Cc1cccc(CC(=O)NCc2ccc(-c3ccc(O)cc3)cc2)c1)NC[C@H](O)c1ccc(O)c(NS(C)(=O)=O)c1
Time [1]: 6.57 h

EC50 [2]: 0.027 nM | Ratio EC50 [3]: 16000 | logD [4]: 1
Structure (SMILES): C[C@H](Cc1cccc(CC(=O)NCc2ccccc2)c1)NC[C@H](O)c1ccc(O)c(NS(C)(=O)=O)c1
Time [1]: 3.24 h

EC50 [2]: 0.17 nM | Ratio EC50 [3]: 7000 | logD [4]: 1.6 | pKa [5]: 9.22
Structure (SMILES): CC(C)(Cc1cccc(CC(=O)NCc2cc(Cl)ccc2O)c1)NC[C@H](O)c1ccc(O)c(NS(C)(=O)=O)c1
Time [1]: 6 h

EC50 [2]: 0.21 nM | Ratio EC50 [3]: 730 | logD [4]: 1.3
Structure (SMILES): CC(C)(Cc1cccc(CC(=O)NCc2ccc3cc(O)ccc3c2)c1)NC[C@H](O)c1ccc(O)c(NS(C)(=O)=O)c1
Time [1]: 6.17 h

EC50 [2]: 0.042 nM | Ratio EC50 [3]: 3400 | logD [4]: 1.7
Structure (SMILES): C[C@H](Cc1cccc(CC(=O)NCCCc2ccccc2)c1)NC[C@H](O)c1ccc(O)c(NS(C)(=O)=O)c1
Time [1]: 5.85 h

EC50 [2]: 0.066 nM | Ratio EC50 [3]: 1700 | logD [4]: 2.4
Structure (SMILES): CC(C)(Cc1cccc(CC(=O)NCc2ccc(Cl)c(Cl)c2)c1)NC[C@H](O)c1ccc(O)c(NS(C)(=O)=O)c1
Time [1]: 8.34 h

Ratio EC50 [3]: 220 | logD [4]: 1.9 | CL [10]: 0.054 mL/min/kg | Papp A→B [11]: < 1 ×10⁻⁶ cm/s | Papp B→A [12]: 13 ×10⁻⁶ cm/s | Vd [13]: 31 L/kg | clearance [14]: 103 mL/min/kg | half-life [15]: 3.5 h | fraction unbound [16]: 0.05 | bioavailability [17]: < 5% | Stability [18]: 6% | CL [19]: 0.033 mL/min/kg | CL free [20]: > 10000 mL/min/kg | Stability [21]: 80% | Tmax [22]: 0.5 h | Cmax [23]: 1.3 nM | CL [25]: < 0.01 mL/min/kg
Structure (SMILES): CC(C)(Cc1cccc(CC(=O)NCc2cccc(-c3ccc(O)cc3)c2)c1)NC[C@H](O)c1ccc(O)c(NS(C)(=O)=O)c1 [PF-00610355]
Time [1]: 6.23 h | Time [6]: >8 h | Time [7]: >8 h | IC50 [24]: > 10000 nM | Activity [26]: Non-toxic | Activity [27]: Non-toxic | ED50 [9]: 0.1 µg | selectivity ratio [28]: ≥ 10

EC50 [2]: 0.091 nM | Ratio EC50 [3]: 1600 | logD [4]: 0.8 | pKa [5]: 6.69
Structure (SMILES): CC(C)(Cc1cccc(CC(=O)NCc2cc(Cl)c(O)c(Cl)c2)c1)NC[C@H](O)c1ccc(O)c(NS(C)(=O)=O)c1
Time [1]: 3.66 h

EC50 [2]: 0.02 nM | Ratio EC50 [3]: 7300 | logD [4]: 1.2
Structure (SMILES): CC(C)(Cc1cccc(CC(=O)NCc2ccc(O)cc2Cl)c1)NC[C@H](O)c1ccc(O)c(NS(C)(=O)=O)c1
Time [1]: 6.8 h

EC50 [2]: 0.04 nM | Ratio EC50 [3]: 1800
Structure (SMILES): C[C@H](Cc1cccc(CC(=O)NCCc2ccccc2)c1)NC[C@H](O)c1ccc(O)c(NS(C)(=O)=O)c1

EC50 [2]: 0.045 nM | Ratio EC50 [3]: 3700 | logD [4]: 1.1 | pKa [5]: 9.93
Structure (SMILES): Cc1cc(O)cc(C)c1CNC(=O)Cc1cccc(CC(C)(C)NC[C@H](O)c2ccc(O)c(NS(C)(=O)=O)c2)c1
Time [1]: 4.59 h

EC50 [2]: 0.023 nM | Ratio EC50 [3]: 7500
Structure (SMILES): CC(C)(Cc1cccc(CC(=O)NCc2ccccc2)c1)NC[C@H](O)c1ccc(O)c(NS(C)(=O)=O)c1

The remaining lines, values behind:

Structure (SMILES): CC(C)(Cc1cccc(CC(=O)NCc2cc(Cl)cc(Cl)c2O)c1)NC[C@H](O)c1ccc(O)c(NS(C)(=O)=O)c1
Time [1]: 8.02 h | EC50 [2]: 0.13 nM | Ratio EC50 [3]: 560 | logD [4]: 2

Structure (SMILES): Cc1ccc(CNC(=O)Cc2cccc(C[C@@H](C)NC[C@H](O)c3ccc(O)c(NS(C)(=O)=O)c3)c2)cc1C
Time [1]: 6.74 h | EC50 [2]: 0.056 nM | Ratio EC50 [3]: 3700 | logD [4]: 2

Structure (SMILES): CC(C)(Cc1ccccc1)NCC(O)c1ccc(O)c(NS(C)(=O)=O)c1 (stereo not given) [ZINTEROL]
Time [1]: 3.4 h | logD [4]: 0.6

Structure (SMILES): OCc1cc(C(O)CNCCCCCCOCCCCc2ccccc2)ccc1O (stereo not given) [SALMETEROL]
Time [1]: 6.97 h | Time [6]: 4 h | Time [7]: <7 h | Activity [8]: Toxic | ED50 [9]: 1 µg

Structure (SMILES): C[C@H](Cc1cccc(CC(=O)NCc2ccc(Cl)c(Cl)c2)c1)NC[C@H](O)c1ccc(O)c(CO)c1
Time [1]: 9 h | Ratio EC50 [3]: 5300

Structure (SMILES): COc1ccccc1CNC(=O)Cc1cccc(C[C@@H](C)NC[C@H](O)c2ccc(O)c(NS(C)(=O)=O)c2)c1
Time [1]: 4.22 h | EC50 [2]: 0.04 nM | Ratio EC50 [3]: 5600 | logD [4]: 1.2

Structure (SMILES): C[C@H](Cc1cccc(CC(=O)NCC2CCCCC2)c1)NC[C@H](O)c1ccc(O)c(NS(C)(=O)=O)c1
Time [1]: 5.79 h | EC50 [2]: 0.032 nM | Ratio EC50 [3]: 3100

Structure (SMILES): CCN(Cc1ccc(O)cc1Cl)C(=O)Cc1cccc(CC(C)(C)NC[C@H](O)c2ccc(O)c(NS(C)(=O)=O)c2)c1
Time [1]: 8.49 h | EC50 [2]: 0.37 nM | Ratio EC50 [3]: 210 | logD [4]: 1.6

Structure (SMILES): COc1cccc(OC)c1CNC(=O)c1cc2cc(C[C@@H](C)NC[C@H](O)c3ccc(O)c(CO)c3)ccc2[nH]1
Time [6]: >8 h | Time [7]: >8 h | ED50 [9]: 1 µg | selectivity ratio [28]: 10

Structure (SMILES): C[C@H](Cc1cccc(CC(=O)NC23CC4CC(CC(C4)C2)C3)c1)NC[C@H](O)c1ccc(O)c(CO)c1
Time [1]: 6.35 h | EC50 [2]: 0.064 nM | Ratio EC50 [3]: 1300

Structure (SMILES): CCOc1ccccc1CNC(=O)Cc1cccc(C[C@@H](C)NC[C@H](O)c2ccc(O)c(NS(C)(=O)=O)c2)c1
Time [1]: 6.2 h | EC50 [2]: 0.048 nM | Ratio EC50 [3]: 3300 | logD [4]: 1.6
